In PubChem BioAssay (NCI):
“And” between values parts separate entries of the source, which are not always exact repeats. Equal values may be shown once.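 Tested at 5 concentrations; 48 h exposure; 96-well plates; endpoints linearly interpolated, else capped at highest concentration. GI50: concentration for 50% inhibition of growth. Definition used: TGI = concentration required for complete inhibition of growth.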

Tested on: MDA-MB-468 breast
Assay: NCI anticancer screen, dose series, 48 h

| SMILES | GI50 | TGI |
| --- | --- | --- |
| CCCCCCCCn1ccc2cc(NC(=O)Cn3cc(CN4CCC(C)CC4)nn3)ccc21 | 1.62 µM | 3.29 µM |
| Cc1ccc2c(n1)C(=O)C(Cl)=C(Nc1ccc(N3CCN(C)CC3)cc1)C2=O | 1.51 µM | 3.13 µM |
| O=[N+]([O-])c1ccc(N/N=C/c2ccccc2O)nc1 | 3.12 µM | 29.9 µM |
| O=S1CCN(Cc2ccc(-c3ccc4ncnc(Nc5ccc(OCc6ccccc6)c(F)c5)c4c3)o2)CC1 | 0.13 µM | 1.19 µM |
| C=C1C(=O)O[C@H]2[C@H]1CC/C(COC(=O)c1cccc3ccccc13)=C\CC[C@@]1(C)O[C@@H]21 | 1.35 µM | 3.13 µM |
| CCOC(=O)C1=C(C)NC(C)=C(C(=O)OCC)C1c1cc(Br)c(O)c(OC)c1 | 2.88 µM | 14.4 µM |
| O=C1c2cccc3cccc(c23)C(=O)N1CC#Cc1ccc2c3c(cccc13)C(=O)N(CCN1CCNCC1)C2=O | 2.19 µM | 5.3 µM |
| O=c1c(-c2ccc3c(c2)OCO3)coc2c(CO)c(O)ccc12 | 1.85 µM | 5.37 µM |
| O=C1NC(=O)C(N2CCc3ccccc32)=C1c1ccc(Cl)cc1 | > 25 µM | > 25 µM |
| c1cc2ccc3cc2cc1CNCCOCCNCc1ccc2ccc(cc2c1)CNCCOCCNC3 | > 100 µM | > 100 µM |
| CCN1CCN(CC(=O)Nc2nc3ccc(NCc4ccc(C)cc4)cc3s2)CC1 | 2.03 µM | 8.96 µM |
| Nc1cccc2c1CN(C1CCC(=O)NC1=O)C2=O (stereo not drawn) | > 100 µM | > 100 µM |
| CC(=O)Nc1c(I)c(C(=O)O)c(I)c(N(C)C(C)=O)c1I | > 100 µM | > 100 µM |
| COc1ccccc1N(C(C)=O)C1=C(Cl)C(=O)c2ccccc2C1=O | 0.487 µM | 1.94 µM |
| COc1cc(OC)cc(C(=O)Nc2cccc(C#Cc3cccc4[nH]nc(N)c34)c2)c1 | 0.558 µM | 3.92 µM |
| O=c1[nH]cc(CO)c(=O)[nH]1 | > 100 µM | > 100 µM |
| CS(=O)/C(C#N)=C\C=C\c1cccc(Cl)c1 (stereo not drawn) | 1.27 µM | 4.28 µM |
| COc1ccc(Oc2nc(Nc3ccc(N4CCOCC4)cc3)ncc2NC(=O)Nc2cc(OC)cc(OC)c2)cc1 | 3.39 µM | 11.7 µM |
| NS(=O)(=O)c1cccc(-c2cc3ccncc3cc2OCc2ccccc2)c1 | 4.08 µM | 16 µM |
| N#Cc1ccc(N2Cc3cc(Cl)ccc3OC3=C2C(=O)N(Cc2ccc(F)cc2)C3=O)cc1 | 0.595 µM | 1.34 µM |
| Oc1[nH]c2ccc(Cl)cc2c1/C=c1/ccc2c(c1)N=C(c1ccc(C(F)(F)F)cc1)N=2 | 1.94 µM | 4.57 µM |
| Cc1ccc(-n2nnc3c(sc4ccccc43)c2=O)cc1 | 18.5 µM | > 100 µM |

| SMILES | GI50 | TGI |
| --- | --- | --- |
| O=C1c2ccccc2C(=O)c2c(NCCNCCO)ccc(NCCNCCO)c21 | 0.904 µM and 1.3 µM and 1.66 µM | 2.45 µM and 2.92 µM and 3.84 µM |
| Cc1cc(N2CCN(C)CC2)nc(N(CCNc2ccnc3cc(Cl)ccc23)Cc2ccco2)n1 | 2.07 µM | 6.1 µM |
| Cc1ccn2c(-c3csc(Nc4cccc(O)c4)n3)c(C)nc2c1 | 1.77 µM | 7.91 µM |
| COc1ccc(C2=NNC(c3cc(Cc4ccc(O)c(C5CC(c6ccc(OC)cc6)=NN5)c4)ccc3O)C2)cc1 (stereo not drawn) | 2.97 µM | 22.9 µM |
| COC(=O)c1c2c(c(C)[n+]([O-])c1C)C(=O)C=C(NCc1ccc(Br)cc1)C2=O | 0.207 µM | 0.816 µM |
| Cc1cc(Br)c2nsnc2c1[N+](=O)[O-] | 1.45 µM | 3.24 µM |
| COc1cc2nc(Cl)nc(Nc3cccc(C4=Nc5c(N)nc(N)nc5NC(c5ccc(Cl)cc5)C4)c3)c2cc1OC (stereo not drawn) | 1.73 µM | 3.49 µM |
| CCc1ccc(Oc2nccc(-c3c(-c4ccc(F)cc4)ncn3C3CCNCC3)n2)cc1 | 3.71 µM | 7.59 µM |
| Nc1ncnc2c1nc(N)n2C1OC(CO)C(O)C1O (stereo not drawn) | 0.22 µM | 1.15 µM |
| O=C(Nc1ccc2cc3ccc(NC(=O)N4CCCCCC4)cc3nc2c1)N1CCCCCC1 | 1.56 µM | 3.03 µM |
| C[C@@H](Oc1cc(-c2cnn(C3CC4(CNC4)C3)c2)cnc1N)c1c(Cl)ccc(F)c1Cl | 2.46 µM | 9.35 µM |
| Cc1ccc(NC(C(=O)c2ccccc2)c2ccccc2)cc1 (stereo not drawn) | 2.18 µM | 8.85 µM |
| Cc1ccc(-c2c3c(N)nc(-c4ccncc4)nc3nc3c2c(C)nn3-c2ccccc2)cc1 | > 37.5 µM | > 37.5 µM |
| CCOC(=O)c1c(C(F)(F)F)n([O-])c2ccc(Cl)cc2[n+]1=O | 1.79 µM | 3.92 µM |
| O=[N+]([O-])c1ccc(Oc2cccc(C(F)(F)F)c2)c([N+](=O)[O-])c1 | 1.64 µM | 3.1 µM |
| CCCCCCCCCCCCNC(=O)[C@H]1CSC(c2cc(Br)cs2)N1 (stereo partly drawn) | 0.89 µM | 1.74 µM |
| C/C(=C\CCc1ccsc1)CC/C=C(\C)CCCN1CCN(CCO)CC1 | 1.61 µM | 4.1 µM |
| NC(Cc1ccc(O)cc1)C(=O)N/N=C/c1ccc(N(CCCl)CCCl)cc1 (stereo not drawn) | 0.958 µM | 10.5 µM |
| O=C(NC1CCNCC1)c1[nH]ncc1NC(=O)c1c(Cl)cccc1Cl | 0.191 µM and 0.209 µM | 0.434 µM and 0.525 µM |
| O=C(N/N=C/c1ccncc1)c1ccc(C(F)(F)F)nc1Nc1cccc(C(F)(F)F)c1 | 1.35 µM | 4.39 µM |
| Cc1ccc(C2NC(=S)N3C(c4ccc(C)cc4)NC(=S)N23)cc1 (stereo not drawn) | 4.62 µM | 18.9 µM |
| Cc1cc(NS(=O)(=O)c2ccc(NC(=O)COc3ccc(-c4cc5ccccc5[nH]4)cc3)cc2)no1 | 1.61 µM | 3.52 µM |
